Measured values taken from ChEMBL document CHEMBL4308906, “Design and synthesis of selective CYP1B1 inhibitor via dearomatization of α-naphthoflavone” (Bioorg Med Chem, 2019).
Converted amounts (≈) assume the structure as drawn.

Columns and labels:
Cytochrome P450 1B1 [1] = target: T1, Cytochrome P450 1B1 (Homo sapiens, UniProt Q16678); assay: Inhibition of human recombinant CYP1B1 using 7-ethoxyresorufin as substrate assessed as percent enzyme activity at 1 uM after 30 mins in presence of NADPH by EROD assay relative to control; design: scale not given: the % may be the effect or the level left; conditions: read-out: Activity
T1 sequence (Q16678 whole entry): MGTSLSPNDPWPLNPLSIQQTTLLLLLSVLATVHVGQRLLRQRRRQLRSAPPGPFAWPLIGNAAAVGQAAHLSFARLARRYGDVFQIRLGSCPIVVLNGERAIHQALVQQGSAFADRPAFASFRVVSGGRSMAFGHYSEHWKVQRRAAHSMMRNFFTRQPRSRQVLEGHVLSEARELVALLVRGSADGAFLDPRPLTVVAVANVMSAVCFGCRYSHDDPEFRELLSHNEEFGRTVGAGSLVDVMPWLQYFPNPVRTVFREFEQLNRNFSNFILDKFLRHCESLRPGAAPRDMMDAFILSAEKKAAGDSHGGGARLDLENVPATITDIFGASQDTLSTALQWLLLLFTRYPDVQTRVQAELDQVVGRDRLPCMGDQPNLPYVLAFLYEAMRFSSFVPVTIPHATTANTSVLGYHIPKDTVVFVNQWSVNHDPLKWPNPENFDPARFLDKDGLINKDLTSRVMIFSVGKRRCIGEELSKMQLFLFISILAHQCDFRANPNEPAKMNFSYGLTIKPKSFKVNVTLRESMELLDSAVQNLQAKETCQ

CYP1A1 = target: T2, CYP1A1 (Homo sapiens, UniProt P04798); assay: Inhibition of human recombinant CYP1A1 using 7-ethoxyresorufin as substrate assessed as percent enzyme activity at 1 uM after 15 mins in presence of NADPH by EROD assay relative to control; type: ADME; design: scale not given: the % may be the effect or the level left; conditions: recombinant CYP1A1, probe 7-ethoxyresorufin, read-out: Activity
T2 sequence (P04798 whole entry): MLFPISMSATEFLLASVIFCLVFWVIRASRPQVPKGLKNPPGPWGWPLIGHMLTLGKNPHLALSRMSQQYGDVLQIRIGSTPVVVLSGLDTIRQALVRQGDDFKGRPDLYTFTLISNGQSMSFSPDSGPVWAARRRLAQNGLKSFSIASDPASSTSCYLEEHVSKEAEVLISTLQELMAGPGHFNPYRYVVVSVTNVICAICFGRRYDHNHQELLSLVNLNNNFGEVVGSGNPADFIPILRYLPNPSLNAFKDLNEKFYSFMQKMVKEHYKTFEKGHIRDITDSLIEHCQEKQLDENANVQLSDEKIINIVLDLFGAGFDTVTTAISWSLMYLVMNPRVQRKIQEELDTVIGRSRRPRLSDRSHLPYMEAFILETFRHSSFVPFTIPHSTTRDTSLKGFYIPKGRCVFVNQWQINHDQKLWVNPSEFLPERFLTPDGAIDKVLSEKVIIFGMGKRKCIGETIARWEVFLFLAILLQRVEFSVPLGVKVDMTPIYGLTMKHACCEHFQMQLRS

CYP1A2 = target: T3, CYP1A2 (Homo sapiens, UniProt P05177); assay: Inhibition of human recombinant CYP1A2 using 7-ethoxyresorufin as substrate assessed as percent enzyme activity at 1 uM after 30 mins in presence of NADPH by EROD assay relative to control; type: ADME; design: scale not given: the % may be the effect or the level left; conditions: recombinant CYP1A2, probe 7-ethoxyresorufin, read-out: Activity
T3 sequence (P05177 whole entry): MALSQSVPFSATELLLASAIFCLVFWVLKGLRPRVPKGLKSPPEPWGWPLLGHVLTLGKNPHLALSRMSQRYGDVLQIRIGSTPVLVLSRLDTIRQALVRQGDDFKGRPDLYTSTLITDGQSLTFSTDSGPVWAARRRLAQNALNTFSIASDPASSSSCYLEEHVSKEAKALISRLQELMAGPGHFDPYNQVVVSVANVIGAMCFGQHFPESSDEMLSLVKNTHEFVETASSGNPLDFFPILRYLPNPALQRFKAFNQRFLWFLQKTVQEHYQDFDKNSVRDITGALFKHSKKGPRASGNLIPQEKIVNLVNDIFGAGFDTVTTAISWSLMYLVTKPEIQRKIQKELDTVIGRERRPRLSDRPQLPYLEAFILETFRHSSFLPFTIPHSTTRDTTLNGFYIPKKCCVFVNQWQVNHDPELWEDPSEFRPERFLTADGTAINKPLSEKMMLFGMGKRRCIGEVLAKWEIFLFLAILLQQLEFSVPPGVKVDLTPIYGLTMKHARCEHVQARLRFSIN

Cytochrome P450 1B1 [2] = target: T1, Cytochrome P450 1B1; assay: Inhibition of human recombinant CYP1B1 using 7-ethoxyresorufin as substrate after 30 mins in presence of NADPH by EROD assay
Cytochrome P450 1A1 = target: T4, Cytochrome P450 1A1 (Homo sapiens, UniProt P04798); assay: Inhibition of human recombinant CYP1A1 using 7-ethoxyresorufin as substrate after 15 mins in presence of NADPH by EROD assay; type: ADME
T4 sequence (P04798 whole entry): T2 sequence (P04798 whole entry)

Cytochrome P450 1A2 = target: T5, Cytochrome P450 1A2 (Homo sapiens, UniProt P05177); assay: Inhibition of human recombinant CYP1A2 using 7-ethoxyresorufin as substrate after 30 mins in presence of NADPH by EROD assay; type: ADME
T5 sequence (P05177 whole entry): T3 sequence (P05177 whole entry)

Homo sapiens [3] = species on record: Homo sapiens; assay: Selectivity ratio of IC50 for human recombinant CYP1A1 to IC50 for human recombinant CYP1B1
Homo sapiens [4] = species on record: Homo sapiens; assay: Selectivity ratio of IC50 for human recombinant CYP1A2 to IC50 for human recombinant CYP1B1
Cytochrome P450 1B1 [5] = target: T1, Cytochrome P450 1B1; assay: Binding affinity to human C-terminal 4His-tagged CYP1B1 expressed in Escherichia coli DH5alpha assessed as spectral dissociation constant by spectrophotometric analysis; conditions: read-out: Ks
[6] = Aqueous solubility of compound in 9:1 PBS/ethanol buffer by shake flask method; type: physicochemical
[7] = Solubility of compound in pH 7.4 PBS by shake flask met; type: physicochemical; conditions: buffer

SMILES	activity at 0.5 h, 1 µM (Cytochrome P450 1B1 [1])	activity at 0.25 h, 1 µM (CYP1A1)	activity at 0.5 h, 1 µM (CYP1A2)	IC50 (Cytochrome P450 1B1 [2])	IC50 (Cytochrome P450 1A1)	IC50 (Cytochrome P450 1A2)	Ratio IC50 (Homo sapiens [3])	Ratio IC50 (Homo sapiens [4])	Kd (Cytochrome P450 1B1 [5])	solubility thermodynamic [6]	solubility [7]
O=c1cc(-c2ccc(O)cc2)oc2c1ccc1ccccc12	3.7%	6.3%	10.4%	43.4 nM	43 nM	909 nM	0.99	21	–	–	–
C=C=C[C@H]1CC[C@@H](c2cc(=O)c3ccc4ccccc4c3o2)CC1	3.1%	5.5%	4.3%	68.1 nM	33 nM	–	0.48	–	25400 nM	–	–
[N-]=[N+]=Nc1ccc(-c2cc(=O)c3ccc4ccccc4c3o2)cc1	-0.5%	2.3%	-13.6%	2.6 nM	9.5 nM	93.8 nM	3.6	35.6	900 nM	< 1 µM	–
O=c1cc(C2CCCCC2)oc2c1ccc1ccccc12	25.4%	51.5%	51.8%	540 nM	–	–	–	–	5900 nM	9.65 µM (≈ 2.69 µg/mL)	–
CC(=O)S[C@H]1CC[C@@H](c2cc(=O)c3ccc4ccccc4c3o2)CC1	-1.3%	3.8%	42.7%	24.3 nM	65 nM	–	2.7	–	4000 nM	–	–
O=c1cc([C@H]2CC[C@H](S)CC2)oc2c1ccc1ccccc12	1.8%	1.3%	0.6%	40.3 nM	146 nM	689 nM	3.6	17.1	8900 nM	–	–
O=c1cc(-c2ccccc2)oc2c1ccc1ccccc12 [ALPHA-NAPHTHOFLAVONE]	-11.3%	0.4%	-10.1%	–	53.8 nM	–	–	–	–	2.63 µM (≈ 0.716 µg/mL)	Insoluble
[N-]=[N+]=Nc1cccc(-c2cc(=O)c3ccc4ccccc4c3o2)c1	0.7%	1.4%	6.9%	1.8 nM	27.1 nM	74.7 nM	15.5	42.8	800 nM	–	–
C=C=C[C@H]1CC[C@H](c2cc(=O)c3ccc4ccccc4c3o2)CC1	-0.4%	3%	-4.5%	13.4 nM	13.6 nM	36.4 nM	1.02	2.7	2400 nM	–	–
[N-]=[N+]=N[C@H]1CC[C@@H](c2cc(=O)c3ccc4ccccc4c3o2)CC1	-15.3%	39.6%	29.6%	4.4 nM	525 nM	667 nM	120	153	2600 nM	2.67 µM (≈ 0.853 µg/mL)	–
CC(=O)S[C@H]1CC[C@H](c2cc(=O)c3ccc4ccccc4c3o2)CC1	-4.7%	1.1%	45.4%	29.4 nM	15.9 nM	991 nM	0.54	33.7	6700 nM	–	–
[N-]=[N+]=N[C@H]1CC[C@H](c2cc(=O)c3ccc4ccccc4c3o2)CC1	-1.8%	39.5%	46.5%	135 nM	1040 nM	1190 nM	7.7	8.8	5400 nM	–	–
[N-]=[N+]=NCC1CCC(c2cc(=O)c3ccc4ccccc4c3o2)CC1 (mixture of isomers)	2.2%	6.3%	22.3%	23.5 nM	216 nM	433 nM	9.2	18.5	3900 nM	–	–
